Laboratory results: patent US11566022B2, “3-(5-methoxy-1-oxoisoindolin-2-yl)piperidine-2,6-dione derivatives and uses thereof” (NOVARTIS AG, priority 2019, dated 2023)

biological target: HiBit-WIZ fusion protein (Homo sapiens, UniProt O95785+Q96SW2); assay: Quantification of WIZ protein levels in HiBit tag fusion protein assay (WIZ HiBit assay in 293T cells); format: cell-based; parameters: Dmax: dose or concentration left out as unconfirmed; conditions: HEK-293T, 100 minus Amax; 293T cells; read-out: % degradation of WIZ (100-Amax)
Sequence (O95785 whole entry, the tested form may be a part): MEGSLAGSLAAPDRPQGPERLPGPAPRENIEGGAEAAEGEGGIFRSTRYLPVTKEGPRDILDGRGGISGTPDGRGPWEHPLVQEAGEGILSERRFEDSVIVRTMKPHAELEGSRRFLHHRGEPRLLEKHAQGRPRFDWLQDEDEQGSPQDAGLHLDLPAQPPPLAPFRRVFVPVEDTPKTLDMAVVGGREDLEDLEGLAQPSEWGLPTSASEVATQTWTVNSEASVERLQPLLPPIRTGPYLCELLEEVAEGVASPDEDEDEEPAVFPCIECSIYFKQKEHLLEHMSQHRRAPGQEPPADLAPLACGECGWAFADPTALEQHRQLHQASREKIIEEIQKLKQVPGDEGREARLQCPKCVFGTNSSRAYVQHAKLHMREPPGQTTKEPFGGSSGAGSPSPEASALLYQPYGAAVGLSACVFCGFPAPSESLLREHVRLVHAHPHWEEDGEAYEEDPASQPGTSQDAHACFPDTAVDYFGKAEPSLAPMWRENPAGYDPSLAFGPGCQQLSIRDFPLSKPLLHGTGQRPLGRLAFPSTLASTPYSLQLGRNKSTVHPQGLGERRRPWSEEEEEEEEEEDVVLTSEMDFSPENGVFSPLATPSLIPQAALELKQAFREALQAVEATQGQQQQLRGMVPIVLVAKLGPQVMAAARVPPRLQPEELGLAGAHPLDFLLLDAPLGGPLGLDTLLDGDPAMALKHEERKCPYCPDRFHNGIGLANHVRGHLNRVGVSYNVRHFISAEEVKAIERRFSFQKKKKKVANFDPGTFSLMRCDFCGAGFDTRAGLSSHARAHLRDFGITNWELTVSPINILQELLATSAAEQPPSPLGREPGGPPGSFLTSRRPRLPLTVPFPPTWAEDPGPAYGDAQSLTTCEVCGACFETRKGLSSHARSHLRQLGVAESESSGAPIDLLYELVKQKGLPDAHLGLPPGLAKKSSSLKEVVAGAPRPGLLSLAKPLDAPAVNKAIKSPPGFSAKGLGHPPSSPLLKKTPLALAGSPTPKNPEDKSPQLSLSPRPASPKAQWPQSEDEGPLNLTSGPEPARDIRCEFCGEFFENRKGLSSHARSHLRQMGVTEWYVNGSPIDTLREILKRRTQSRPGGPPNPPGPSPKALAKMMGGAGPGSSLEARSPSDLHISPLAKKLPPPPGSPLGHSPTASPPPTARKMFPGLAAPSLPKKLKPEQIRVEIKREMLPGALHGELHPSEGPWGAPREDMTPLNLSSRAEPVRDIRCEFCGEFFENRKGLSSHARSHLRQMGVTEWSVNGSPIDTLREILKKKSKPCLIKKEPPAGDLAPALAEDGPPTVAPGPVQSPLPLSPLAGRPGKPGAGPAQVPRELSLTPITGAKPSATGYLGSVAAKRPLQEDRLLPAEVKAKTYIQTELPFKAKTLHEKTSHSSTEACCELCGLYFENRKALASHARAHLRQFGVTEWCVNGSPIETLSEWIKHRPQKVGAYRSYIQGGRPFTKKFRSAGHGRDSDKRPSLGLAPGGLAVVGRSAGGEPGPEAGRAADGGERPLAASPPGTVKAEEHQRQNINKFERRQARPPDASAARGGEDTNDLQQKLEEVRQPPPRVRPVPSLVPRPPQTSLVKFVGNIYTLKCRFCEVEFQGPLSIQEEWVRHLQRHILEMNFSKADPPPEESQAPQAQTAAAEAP
Sequence (Q96SW2 whole entry, the tested form may be a part): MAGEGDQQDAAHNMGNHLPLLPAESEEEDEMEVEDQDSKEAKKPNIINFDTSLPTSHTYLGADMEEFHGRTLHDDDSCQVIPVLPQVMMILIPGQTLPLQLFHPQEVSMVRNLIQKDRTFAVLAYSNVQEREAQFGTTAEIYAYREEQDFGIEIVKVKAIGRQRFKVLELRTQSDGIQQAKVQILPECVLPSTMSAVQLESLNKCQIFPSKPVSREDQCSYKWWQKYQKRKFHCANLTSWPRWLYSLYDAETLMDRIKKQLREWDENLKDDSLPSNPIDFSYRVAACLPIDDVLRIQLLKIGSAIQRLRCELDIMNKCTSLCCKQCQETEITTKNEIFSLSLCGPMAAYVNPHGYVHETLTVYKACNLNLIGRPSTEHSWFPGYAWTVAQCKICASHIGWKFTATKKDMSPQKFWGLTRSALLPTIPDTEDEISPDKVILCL
Sequence (Q16531 whole entry partner, the tested form may be a part): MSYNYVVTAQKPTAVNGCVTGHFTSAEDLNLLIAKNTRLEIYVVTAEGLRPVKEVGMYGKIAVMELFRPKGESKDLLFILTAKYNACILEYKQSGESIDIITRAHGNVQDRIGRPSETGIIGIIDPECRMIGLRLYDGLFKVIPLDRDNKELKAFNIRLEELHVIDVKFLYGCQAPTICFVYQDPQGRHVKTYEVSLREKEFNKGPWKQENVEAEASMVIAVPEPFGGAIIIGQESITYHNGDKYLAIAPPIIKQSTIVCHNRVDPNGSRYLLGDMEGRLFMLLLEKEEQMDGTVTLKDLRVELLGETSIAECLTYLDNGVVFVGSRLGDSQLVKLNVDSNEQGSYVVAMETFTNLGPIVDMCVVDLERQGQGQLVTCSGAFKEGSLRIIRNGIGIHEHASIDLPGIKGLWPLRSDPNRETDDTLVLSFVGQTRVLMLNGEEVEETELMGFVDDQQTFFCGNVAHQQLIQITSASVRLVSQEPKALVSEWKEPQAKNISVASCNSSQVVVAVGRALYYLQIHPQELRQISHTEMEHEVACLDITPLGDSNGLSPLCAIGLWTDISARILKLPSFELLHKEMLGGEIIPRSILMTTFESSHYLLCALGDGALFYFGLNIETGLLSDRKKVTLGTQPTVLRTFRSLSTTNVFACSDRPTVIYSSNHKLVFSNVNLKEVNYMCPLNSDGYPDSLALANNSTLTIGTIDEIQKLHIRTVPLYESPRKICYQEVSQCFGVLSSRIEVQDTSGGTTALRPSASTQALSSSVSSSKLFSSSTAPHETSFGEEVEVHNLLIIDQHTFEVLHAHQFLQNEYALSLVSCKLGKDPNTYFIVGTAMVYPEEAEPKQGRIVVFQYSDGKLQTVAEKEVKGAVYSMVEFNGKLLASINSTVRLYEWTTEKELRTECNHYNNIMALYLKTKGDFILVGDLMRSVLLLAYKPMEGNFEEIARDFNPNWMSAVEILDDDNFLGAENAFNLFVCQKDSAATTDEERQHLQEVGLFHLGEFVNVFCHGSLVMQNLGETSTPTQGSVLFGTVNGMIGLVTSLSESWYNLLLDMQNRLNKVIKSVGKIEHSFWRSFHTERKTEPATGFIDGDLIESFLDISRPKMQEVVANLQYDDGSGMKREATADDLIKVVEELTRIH

| SMILES | Dmax [%] |
| --- | --- |
| Cc1cc(CN2CCCC[C@H]2COc2ccc3c(c2)CN(C2CCC(=O)NC2=O)C3=O)no1 (stereo partly drawn) [Compound I-50by] | 25.7 |
| O=C1CCC(N2Cc3cc(OC[C@@H]4CCCCN4Cc4cccc(Cn5cccn5)c4)ccc3C2=O)C(=O)N1 (stereo partly drawn) [Compound I-50bz] | 85.2 |
| N#Cc1ccn2cc(CN3CCCC[C@H]3COc3ccc4c(c3)CN(C3CCC(=O)NC3=O)C4=O)nc2c1 (stereo partly drawn) [Compound I-50c] | 38.1 |
| O=C1CCC(N2Cc3cc(OC[C@H]4CCCCN4Cc4cccn5ccnc45)ccc3C2=O)C(=O)N1 (stereo partly drawn) [Compound I-50ca] | 76.3 |
| CC(C)N1CCC(CN2CCCC[C@H]2COc2ccc3c(c2)CN(C2CCC(=O)NC2=O)C3=O)CC1 (stereo partly drawn) [Compound I-50cb] | 74.5 |
| O=C1CCC(N2Cc3cc(OC[C@@H]4CCCCN4Cc4cn[nH]c4)ccc3C2=O)C(=O)N1 (stereo partly drawn) [Compound I-50cc] | 71.7 |
| Cc1nc2ccccn2c1CN1CCCC[C@@H]1COc1ccc2c(c1)CN(C1CCC(=O)NC1=O)C2=O (stereo partly drawn) [Compound I-50cd] | 69.7 |
| O=C1CCC(N2Cc3cc(OC[C@H]4CCCCN4Cc4cncnc4)ccc3C2=O)C(=O)N1 (stereo partly drawn) [Compound I-50ce] | 43.9 |
| CC(C)(C)OC(=O)NC1(CN2CCCC[C@@H]2COc2ccc3c(c2)CN(C2CCC(=O)NC2=O)C3=O)CCCC1 (stereo partly drawn) [Compound I-50cf] | 38.1 |
| O=C1CCC(N2Cc3cc(OC[C@H]4CCCCN4Cc4ccc(OCCN5CCOCC5)cc4)ccc3C2=O)C(=O)N1 (stereo partly drawn) [Compound I-50cg] | 92.7 |
| CCOC(=O)c1n[nH]cc1CN1CCCC[C@@H]1COc1ccc2c(c1)CN(C1CCC(=O)NC1=O)C2=O (stereo partly drawn) [Compound I-50ch] | 59.1 |
| CC(C)Cn1cc(CN2CCCC[C@H]2COc2ccc3c(c2)CN(C2CCC(=O)NC2=O)C3=O)cn1 (stereo partly drawn) [Compound I-50ci] | 83.2 |
| CNc1ncccc1CN1CCCC[C@@H]1COc1ccc2c(c1)CN(C1CCC(=O)NC1=O)C2=O (stereo partly drawn) [Compound I-50cj] | 71.8 |
| O=C1CCC(N2Cc3cc(OC[C@@H]4CCCCN4Cc4cnn(Cc5ccccc5)c4)ccc3C2=O)C(=O)N1 (stereo partly drawn) [Compound I-50ck] | 83.2 |
| O=C1CCC(N2Cc3cc(OC[C@H]4CCCCN4CC4CCN(C(=O)OCc5ccccc5)CC4)ccc3C2=O)C(=O)N1 (stereo partly drawn) [Compound I-50cl] | 77.7 |
| COc1cc(C#N)ccc1CN1CCCC[C@@H]1COc1ccc2c(c1)CN(C1CCC(=O)NC1=O)C2=O (stereo partly drawn) [Compound I-50cm] | 67.2 |
| N#Cc1cccc(Cn2cccc(CN3CCCC[C@@H]3COc3ccc4c(c3)CN(C3CCC(=O)NC3=O)C4=O)c2=O)c1 (stereo partly drawn) [Compound I-50cp] | 65.2 |
| O=C1CCC(N2Cc3cc(OC[C@@H]4CCCCN4Cc4cncnc4)ccc3C2=O)C(=O)N1 (stereo partly drawn) [Compound I-50cq] | 7.3 |
| O=C1CCC(N2Cc3cc(OC[C@@H]4CCCCN4CC4CCN(C(=O)OCc5ccccc5)CC4)ccc3C2=O)C(=O)N1 (stereo partly drawn) [Compound I-50cr] | 52.9 |
| Cc1nc[nH]c1CN1CCCC[C@@H]1COc1ccc2c(c1)CN(C1CCC(=O)NC1=O)C2=O (stereo partly drawn) [Compound I-50cs] | 71.1 |
| O=C1CCC(N2Cc3cc(OC[C@H]4CCCCN4Cc4cnn(-c5cnccn5)c4)ccc3C2=O)C(=O)N1 (stereo partly drawn) [Compound I-50ct] | 80.2 |
| O=C1CCC(N2Cc3cc(OC[C@@H]4CCCCN4Cc4ccnc(O)c4)ccc3C2=O)C(=O)N1 (stereo partly drawn) [Compound I-50cv] | 42.6 |
| Cn1c(CN2CCCC[C@@H]2COc2ccc3c(c2)CN(C2CCC(=O)NC2=O)C3=O)nc2ccccc21 (stereo partly drawn) [Compound I-50cw] | 39 |

same assay, conditions: HEK-293T, DMSO-normalized, curve-fitted percentage of WIZ-HiBit remaining at 25 uM; 293T cells; read-out: WIZ Amax

| SMILES | remaining activity at up to 25 µM [%] |
| --- | --- |
| Cc1cc(CN2CCCC[C@H]2COc2ccc3c(c2)CN(C2CCC(=O)NC2=O)C3=O)no1 (stereo partly drawn) [Compound I-50by] | 74.3 |
| O=C1CCC(N2Cc3cc(OC[C@@H]4CCCCN4Cc4cccc(Cn5cccn5)c4)ccc3C2=O)C(=O)N1 (stereo partly drawn) [Compound I-50bz] | 14.8 |
| N#Cc1ccn2cc(CN3CCCC[C@H]3COc3ccc4c(c3)CN(C3CCC(=O)NC3=O)C4=O)nc2c1 (stereo partly drawn) [Compound I-50c] | 61.9 |
| O=C1CCC(N2Cc3cc(OC[C@H]4CCCCN4Cc4cccn5ccnc45)ccc3C2=O)C(=O)N1 (stereo partly drawn) [Compound I-50ca] | 23.7 |
| CC(C)N1CCC(CN2CCCC[C@H]2COc2ccc3c(c2)CN(C2CCC(=O)NC2=O)C3=O)CC1 (stereo partly drawn) [Compound I-50cb] | 25.5 |
| O=C1CCC(N2Cc3cc(OC[C@@H]4CCCCN4Cc4cn[nH]c4)ccc3C2=O)C(=O)N1 (stereo partly drawn) [Compound I-50cc] | 28.3 |
| Cc1nc2ccccn2c1CN1CCCC[C@@H]1COc1ccc2c(c1)CN(C1CCC(=O)NC1=O)C2=O (stereo partly drawn) [Compound I-50cd] | 30.3 |
| O=C1CCC(N2Cc3cc(OC[C@H]4CCCCN4Cc4cncnc4)ccc3C2=O)C(=O)N1 (stereo partly drawn) [Compound I-50ce] | 56.1 |
| CC(C)(C)OC(=O)NC1(CN2CCCC[C@@H]2COc2ccc3c(c2)CN(C2CCC(=O)NC2=O)C3=O)CCCC1 (stereo partly drawn) [Compound I-50cf] | 61.9 |
| O=C1CCC(N2Cc3cc(OC[C@H]4CCCCN4Cc4ccc(OCCN5CCOCC5)cc4)ccc3C2=O)C(=O)N1 (stereo partly drawn) [Compound I-50cg] | 7.3 |
| CCOC(=O)c1n[nH]cc1CN1CCCC[C@@H]1COc1ccc2c(c1)CN(C1CCC(=O)NC1=O)C2=O (stereo partly drawn) [Compound I-50ch] | 40.9 |
| CC(C)Cn1cc(CN2CCCC[C@H]2COc2ccc3c(c2)CN(C2CCC(=O)NC2=O)C3=O)cn1 (stereo partly drawn) [Compound I-50ci] | 16.8 |
| CNc1ncccc1CN1CCCC[C@@H]1COc1ccc2c(c1)CN(C1CCC(=O)NC1=O)C2=O (stereo partly drawn) [Compound I-50cj] | 28.2 |
| O=C1CCC(N2Cc3cc(OC[C@@H]4CCCCN4Cc4cnn(Cc5ccccc5)c4)ccc3C2=O)C(=O)N1 (stereo partly drawn) [Compound I-50ck] | 16.8 |
| O=C1CCC(N2Cc3cc(OC[C@H]4CCCCN4CC4CCN(C(=O)OCc5ccccc5)CC4)ccc3C2=O)C(=O)N1 (stereo partly drawn) [Compound I-50cl] | 22.3 |
| COc1cc(C#N)ccc1CN1CCCC[C@@H]1COc1ccc2c(c1)CN(C1CCC(=O)NC1=O)C2=O (stereo partly drawn) [Compound I-50cm] | 32.8 |
| N#Cc1cccc(Cn2cccc(CN3CCCC[C@@H]3COc3ccc4c(c3)CN(C3CCC(=O)NC3=O)C4=O)c2=O)c1 (stereo partly drawn) [Compound I-50cp] | 34.8 |
| O=C1CCC(N2Cc3cc(OC[C@@H]4CCCCN4Cc4cncnc4)ccc3C2=O)C(=O)N1 (stereo partly drawn) [Compound I-50cq] | 92.7 |
| O=C1CCC(N2Cc3cc(OC[C@@H]4CCCCN4CC4CCN(C(=O)OCc5ccccc5)CC4)ccc3C2=O)C(=O)N1 (stereo partly drawn) [Compound I-50cr] | 47.1 |
| Cc1nc[nH]c1CN1CCCC[C@@H]1COc1ccc2c(c1)CN(C1CCC(=O)NC1=O)C2=O (stereo partly drawn) [Compound I-50cs] | 28.9 |
| O=C1CCC(N2Cc3cc(OC[C@H]4CCCCN4Cc4cnn(-c5cnccn5)c4)ccc3C2=O)C(=O)N1 (stereo partly drawn) [Compound I-50ct] | 19.8 |
| O=C1CCC(N2Cc3cc(OC[C@@H]4CCCCN4Cc4ccnc(O)c4)ccc3C2=O)C(=O)N1 (stereo partly drawn) [Compound I-50cv] | 57.4 |
| Cn1c(CN2CCCC[C@@H]2COc2ccc3c(c2)CN(C2CCC(=O)NC2=O)C3=O)nc2ccccc21 (stereo partly drawn) [Compound I-50cw] | 61 |

same assay, conditions: WIZ HiBit assay in 293T cells; 10-point, 5-fold dose response, highest concentration 25 μM, about 18 hours; read-out: WIZ AC50

| SMILES | DC50 [µM] |
| --- | --- |
| Cc1cc(CN2CCCC[C@H]2COc2ccc3c(c2)CN(C2CCC(=O)NC2=O)C3=O)no1 (stereo partly drawn) [Compound I-50by] | > 25 |
| O=C1CCC(N2Cc3cc(OC[C@@H]4CCCCN4Cc4cccc(Cn5cccn5)c4)ccc3C2=O)C(=O)N1 (stereo partly drawn) [Compound I-50bz] | 0.172 |
| N#Cc1ccn2cc(CN3CCCC[C@H]3COc3ccc4c(c3)CN(C3CCC(=O)NC3=O)C4=O)nc2c1 (stereo partly drawn) [Compound I-50c] | > 25 |
| O=C1CCC(N2Cc3cc(OC[C@H]4CCCCN4Cc4cccn5ccnc45)ccc3C2=O)C(=O)N1 (stereo partly drawn) [Compound I-50ca] | 0.239 |
| CC(C)N1CCC(CN2CCCC[C@H]2COc2ccc3c(c2)CN(C2CCC(=O)NC2=O)C3=O)CC1 (stereo partly drawn) [Compound I-50cb] | 5.8 |
| O=C1CCC(N2Cc3cc(OC[C@@H]4CCCCN4Cc4cn[nH]c4)ccc3C2=O)C(=O)N1 (stereo partly drawn) [Compound I-50cc] | 5.97 |
| Cc1nc2ccccn2c1CN1CCCC[C@@H]1COc1ccc2c(c1)CN(C1CCC(=O)NC1=O)C2=O (stereo partly drawn) [Compound I-50cd] | 3.74 |
| O=C1CCC(N2Cc3cc(OC[C@H]4CCCCN4Cc4cncnc4)ccc3C2=O)C(=O)N1 (stereo partly drawn) [Compound I-50ce] | > 25 |
| CC(C)(C)OC(=O)NC1(CN2CCCC[C@@H]2COc2ccc3c(c2)CN(C2CCC(=O)NC2=O)C3=O)CCCC1 (stereo partly drawn) [Compound I-50cf] | > 25 |
| O=C1CCC(N2Cc3cc(OC[C@H]4CCCCN4Cc4ccc(OCCN5CCOCC5)cc4)ccc3C2=O)C(=O)N1 (stereo partly drawn) [Compound I-50cg] | 0.043 |
| CCOC(=O)c1n[nH]cc1CN1CCCC[C@@H]1COc1ccc2c(c1)CN(C1CCC(=O)NC1=O)C2=O (stereo partly drawn) [Compound I-50ch] | 9.24 |
| CC(C)Cn1cc(CN2CCCC[C@H]2COc2ccc3c(c2)CN(C2CCC(=O)NC2=O)C3=O)cn1 (stereo partly drawn) [Compound I-50ci] | 0.306 |
| CNc1ncccc1CN1CCCC[C@@H]1COc1ccc2c(c1)CN(C1CCC(=O)NC1=O)C2=O (stereo partly drawn) [Compound I-50cj] | 0.757 |
| O=C1CCC(N2Cc3cc(OC[C@@H]4CCCCN4Cc4cnn(Cc5ccccc5)c4)ccc3C2=O)C(=O)N1 (stereo partly drawn) [Compound I-50ck] | 0.766 |
| O=C1CCC(N2Cc3cc(OC[C@H]4CCCCN4CC4CCN(C(=O)OCc5ccccc5)CC4)ccc3C2=O)C(=O)N1 (stereo partly drawn) [Compound I-50cl] | 0.644 |
| COc1cc(C#N)ccc1CN1CCCC[C@@H]1COc1ccc2c(c1)CN(C1CCC(=O)NC1=O)C2=O (stereo partly drawn) [Compound I-50cm] | 1.77 |
| N#Cc1cccc(Cn2cccc(CN3CCCC[C@@H]3COc3ccc4c(c3)CN(C3CCC(=O)NC3=O)C4=O)c2=O)c1 (stereo partly drawn) [Compound I-50cp] | 3.53 |
| O=C1CCC(N2Cc3cc(OC[C@@H]4CCCCN4Cc4cncnc4)ccc3C2=O)C(=O)N1 (stereo partly drawn) [Compound I-50cq] | > 25 |
| O=C1CCC(N2Cc3cc(OC[C@@H]4CCCCN4CC4CCN(C(=O)OCc5ccccc5)CC4)ccc3C2=O)C(=O)N1 (stereo partly drawn) [Compound I-50cr] | > 25 |
| Cc1nc[nH]c1CN1CCCC[C@@H]1COc1ccc2c(c1)CN(C1CCC(=O)NC1=O)C2=O (stereo partly drawn) [Compound I-50cs] | 4.41 |
| O=C1CCC(N2Cc3cc(OC[C@H]4CCCCN4Cc4cnn(-c5cnccn5)c4)ccc3C2=O)C(=O)N1 (stereo partly drawn) [Compound I-50ct] | 0.133 |
| O=C1CCC(N2Cc3cc(OC[C@@H]4CCCCN4Cc4ccnc(O)c4)ccc3C2=O)C(=O)N1 (stereo partly drawn) [Compound I-50cv] | > 25 |
| Cn1c(CN2CCCC[C@@H]2COc2ccc3c(c2)CN(C2CCC(=O)NC2=O)C3=O)nc2ccccc21 (stereo partly drawn) [Compound I-50cw] | > 25 |
